Test system: ammonia formation
Test: Ammonia formation in sodium bentonite clay litter contacted with feline urine, monitored daily
Conditions: for ammonia at day 11 / inhibition of ammonia formation: FIG. 2; for Day 11 NH3 PPM (mean): treatment dosed at 0.5 g per 100 g of litter, FIG. 3 / FIG. 4 data; for ammonia formation versus virgin clay litter control: 0.5 g per 100 g of litter, FIG. 3; for inhibition of ammonia formation: 0.02 g per 100 g of litter (0.02% by weight)
Protocol: The efficacy of various anti-oxidant rich spices was tested for ability to inhibit ammonia growth in litter compositions. FIG. 1 illustrates the results for each test that was performed. Each litter substrate included sodium bentonite clay. A control included virgin clay, with no added spice. Each of the other samples tested included a particular spice, dosed onto or into the clay litter substrate at 1.5 g per 100 g of clay substrate (a 1.5% loading of each of the tested spices). The tested spices were cinnamon, peppermint, rosemary, rubbing sage, spearmint, star anise, sumac, thyme, and turmeric. A control was also tested that included no spice at all. Each sample was contacted with 20 mL of feline urine, and then monitored over a period of 11 days, with the mean PPM of ammonia recorded for each day.
Each of the treatments tested in FIG. 3 were dosed at 0.5 g per 100 g of litter. Many of the other treatments tested were similarly dosed, unless stated otherwise (i.e., 0.5 g per 100 g of litter).

O=C(O)/C=C/c1ccc(O)c(O)c1 [Caffeic acid, Caffeic Acid]
ammonia at day 11 (0.5% caffeic acid (0.5 g per 100 g of litter)): less than 60 ppm
ammonia at day 11 (1% caffeic acid (1 g per 100 g of litter)): less than 40 ppm
Day 11 NH3 PPM (mean): 47.894 PPM

O=C/C=C/c1ccccc1 [Cinnamaldehyde]
Day 11 NH3 PPM (mean): 4.150 PPM

CCOC(=O)/C=C/c1ccccc1 [Ethyl cinnamate, Ethyl Cinnamate, reference compound]
ammonia formation versus virgin clay litter control: promotes ammonia (odor) formation
Day 11 NH3 PPM (mean): 126.324 PPM

COc1cc(/C=C/C(=O)O)ccc1O [Ferulic acid, Ferulic Acid]
Day 11 NH3 PPM (mean): 62.182 PPM

O=C(O)CCc1ccccc1 [Hydrocinnamic acid]
Day 11 NH3 PPM (mean): 45.720 PPM

O=C(/C=C/c1ccc(O)c(O)c1)O[C@H](Cc1ccc(O)c(O)c1)C(=O)O [Rosmarinic acid, Rosmarinic Acid]
efficacy of odor inhibition compared with 0.44% borate treated litter (0.5% rosmarinic acid, FIG. 4): comparable in efficacy to the borate treated litter substrate
Day 11 NH3 PPM (mean): 20-30 PPM

COc1cc(/C=C/C(=O)O)cc(OC)c1O [Sinapic acid, Sinapic Acid]
Day 11 NH3 PPM (mean): 38.428 PPM

O=C(O)/C=C/c1ccccc1 [Trans-cinnamic acid, Trans-Cinnamic Acid]
Day 11 NH3 PPM (mean): 4.493 PPM

O.O.O.O.O.O.O.O.O.O.O.O.O=S(=O)([O-])[O-].O=S(=O)([O-])[O-].[Al+3].[K+] [alum, hydrated potassium aluminum sulfate, reference compound]
ammonia formation versus virgin clay litter control: better than the virgin clay litter control

CC(C)c1cc2c(c(O)c1O)[C@@]1(C(=O)O)CCCC(C)(C)[C@@H]1CC2 [carnosic acid, Carnosic Acid]
inhibition of ammonia formation: significant inhibition of ammonia formation

O=C(O)/C=C/c1ccc(O)cc1 [p-coumaric acid, p-Coumaric Acid]
Day 11 NH3 PPM (mean): 26.199 PPM

CC(O)C(=O)[O-].[Ag+] (stereo not shown) [silver lactate, reference compound]
ammonia formation versus virgin clay litter control: better than the virgin clay litter control

O=C([O-])[O-].O=C([O-])[O-].OO.OO.OO.[Na+].[Na+].[Na+].[Na+] [sodium percarbonate, reference compound]
ammonia formation versus virgin clay litter control: better than the virgin clay litter control

C[C@H]1[C@H](C)CC[C@]2(C(=O)O)CC[C@]3(C)C(=CC[C@@H]4[C@@]5(C)CC[C@H](O)C(C)(C)[C@@H]5CC[C@]43C)[C@H]12 [ursolic acid, Ursolic Acid]
inhibition of ammonia formation: significant inhibition of ammonia formation

borate [reference compound]
ammonia at day 11 (litter substrate treated with 0.44% borate): 76 ppm

Reference: US20180228124A1, “ANIMAL LITTER COMPRISING CINNAMIC AND/OR ROSMARINIC COMPOUNDS” (The Clorox Company, priority 2017, published 2018)
